Test results taken from patent publication US11420970B1 (NOVARTIS AG, priority 2019, dated 2022).
pIC50: −log10 of the molar value.

How the values were obtained:
[1] = test system: cellular H3K36me2 level in multiple myeloma cell line KMS11 (t(4;14)+); assay: H3K36me2 cellular FRET assay in KMS11-Par line; assay type: cell-based; settings: Homo sapiens
[2] = test system: cellular H3K36me2 level in multiple myeloma cell line KMS11 (t(4;14)+); assay: H3K36me2 cellular ELISA assay in KMS11-Par line; assay type: cell-based; settings: Homo sapiens, read-out: H3K36me2 ELISA in KMS11-Par
Summary of the method: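 After 72 h compound exposure, HCl-extracted histones from KMS11 (t(4;14)+) cells were probed by ELISA for H3K36me2 against total H3 with a chemiluminescence read-out. Cells were plated at 1,250/well in Opti-MEM plus B-27 and N2 the day before. A parallel CellTiter-Glo plate tracked viability.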

[3] = test system: cellular H3K36me2 level in thyroid carcinoma cell line CGTH-W-1 (NSD2 E1099K); assay: H3K36me2 cellular ELISA assay in CGTH-W-1 line; assay type: cell-based; settings: Homo sapiens, CGTH-W-1, 72 h, read-out: H3K36me2 ELISA in CGTH-W-1
Summary of the method: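 After 72 h compound treatment of NSD2 E1099K-mutant CGTH-W-1 cells, H3K36me2 and total H3 were quantified by ELISA with chemiluminescent read-out. A parallel-seeded plate gave cell viability by CellTiter-Glo.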

[4] = target: NSD2 [1-1365] (Homo sapiens (Human), UniProt O96028); assay: LC-MS/MS-based NSD2 enzymatic assay (SAH production); assay type: biochemical; settings: NSD2 biochemical activity, class symbols; read-out: NSD2 IC50
Summary of the method: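 SAH formed was measured by LC-MS/MS using d4-SAH as internal standard and an SAH calibration curve. Compounds were preincubated 20 min with NSD2 [1-1365] and SAM; mouse-liver nucleosome then started a 90 min room-temperature reaction (8 nM enzyme, 1 μM SAM, 400 nM nucleosome final, pH 8.0), stopped with TFA.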

[5] = KMS-11, KMS11-Par line, cellular H3K36me2 level, FRET, read-out: H3K36me2 FRET in KMS11-Par
[6] = KMS-11, KMS11-Par line (t(4;14)+), 72 hours treatment, ELISA

Sequence of NSD2 [1-1365] (O96028 whole entry): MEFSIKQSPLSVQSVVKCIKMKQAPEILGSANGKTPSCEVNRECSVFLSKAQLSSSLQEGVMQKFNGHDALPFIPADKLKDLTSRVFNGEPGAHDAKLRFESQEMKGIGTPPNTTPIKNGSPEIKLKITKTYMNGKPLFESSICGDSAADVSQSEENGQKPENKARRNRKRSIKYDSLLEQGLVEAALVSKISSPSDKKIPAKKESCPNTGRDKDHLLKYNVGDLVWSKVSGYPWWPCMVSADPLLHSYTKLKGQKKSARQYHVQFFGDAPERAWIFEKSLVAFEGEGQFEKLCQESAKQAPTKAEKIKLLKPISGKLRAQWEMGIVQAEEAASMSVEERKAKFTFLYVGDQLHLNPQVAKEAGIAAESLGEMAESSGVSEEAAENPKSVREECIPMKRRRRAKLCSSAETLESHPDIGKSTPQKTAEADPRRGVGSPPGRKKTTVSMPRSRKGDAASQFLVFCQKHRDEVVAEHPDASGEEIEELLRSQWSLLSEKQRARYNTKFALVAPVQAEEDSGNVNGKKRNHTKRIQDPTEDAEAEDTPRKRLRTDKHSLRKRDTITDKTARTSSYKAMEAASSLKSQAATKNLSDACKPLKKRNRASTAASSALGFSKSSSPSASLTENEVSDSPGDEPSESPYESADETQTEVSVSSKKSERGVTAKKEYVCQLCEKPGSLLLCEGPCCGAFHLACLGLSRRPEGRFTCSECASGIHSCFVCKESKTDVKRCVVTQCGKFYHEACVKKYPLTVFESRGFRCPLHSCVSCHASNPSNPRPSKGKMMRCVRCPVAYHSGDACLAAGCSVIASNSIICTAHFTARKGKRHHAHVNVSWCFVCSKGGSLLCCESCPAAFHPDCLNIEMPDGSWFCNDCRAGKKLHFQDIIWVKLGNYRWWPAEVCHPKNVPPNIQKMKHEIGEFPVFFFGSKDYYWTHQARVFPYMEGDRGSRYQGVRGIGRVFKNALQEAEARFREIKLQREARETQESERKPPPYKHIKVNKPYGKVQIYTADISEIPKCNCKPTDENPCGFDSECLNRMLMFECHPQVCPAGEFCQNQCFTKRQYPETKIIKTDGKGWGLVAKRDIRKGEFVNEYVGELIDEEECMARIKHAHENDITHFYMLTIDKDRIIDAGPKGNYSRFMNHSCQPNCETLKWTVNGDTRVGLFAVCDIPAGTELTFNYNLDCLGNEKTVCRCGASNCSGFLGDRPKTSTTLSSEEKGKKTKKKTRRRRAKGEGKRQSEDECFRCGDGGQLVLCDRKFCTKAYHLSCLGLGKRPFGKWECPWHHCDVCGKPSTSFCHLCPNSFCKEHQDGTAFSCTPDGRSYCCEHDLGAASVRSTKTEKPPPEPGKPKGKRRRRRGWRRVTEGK

SMILES	pIC50 [1, 5]	pIC50 [2, 6]	pIC50 [3]	pIC50 [4]	pIC50 ([1]; KMS-11, read-out: H3K36me2 FRET in KMS11-Par)	pIC50 ([2]; KMS-11, 72 h)
Nc1ncnc2c1ncn2Cc1cc(-c2ccc(F)c(F)c2)ncc1N1CCC[C@](N)(CC(F)F)C1 [Example 47, (S)-9-((5-(3-amino-3-(2,2-difluoroethyl)piperidin-1-yl)-2-(3,4-difluorophenyl)pyridin-4-yl)methyl)-9H-purin-6-amine]	5.93	5.81	6.42	6.00 to 8.00		
CO[C@@H](C)[C@@]1(N)CCCN(c2cnc(-c3ccc(F)c(F)c3)cc2Cn2cnc3c(N)ncnc32)C1 [Example 95, 9-((5-((R)-3-amino-3-((S)-1-methoxyethyl)piperidin-1-yl)-2-(3,4-difluorophenyl)pyridin-4-yl)methyl)-9H-purin-6-amine]	5.74	5.52	5.78	6.00 to 8.00		
COc1ccc(-c2cc(Cn3cnc4c(N)ncnc43)c(N3CCC[C@](N)(COC(F)F)C3)cn2)cc1F [Example 42, (R)-9-((5-(3-amino-3-((difluoromethoxy)methyl)piperidin-1-yl)-2-(3-fluoro-4-methoxyphenyl)pyridin-4-yl)methyl)-9H-purin-6-amine]	5.91	4.97	6.10	6.00 to 8.00		
COc1ccc(-c2cc(Cn3cnc4c(N)ncnc43)c(N3CCC[C@@H](N)C3)cn2)cc1F [Example 1, (R)-9-((5-(3-aminopiperidin-1-yl)-2-(3-fluoro-4-methoxyphenyl)pyridin-4-yl)methyl)-9H-purin-6-amine]			6.12	6.00 to 8.00	5.52	5.39
COc1ccc(-c2cc(Cn3cnc4c(N)ncnc43)c(N3CCC[C@](N)(COC4CCC4)C3)cn2)cc1F [Example 32, (R)-9-((5-(3-amino-3-(cyclobutoxymethyl)piperidin-1-yl)-2-(3-fluoro-4-methoxyphenyl)pyridin-4-yl)methyl)-9H-purin-6-amine]	6.57	6.14	6.71	8.00 to 9.00		
COc1ccc(-c2cc(Cn3cnc4c(N)ncnc43)c(N3CCC[C@](N)([C@H](C)OC)C3)cn2)cc1F [Example 93, 9-((5-((R)-3-amino-3-((S)-1-methoxyethyl)piperidin-1-yl)-2-(3-fluoro-4-methoxyphenyl)pyridin-4-yl)methyl)-9H-purin-6-amine]	5.86	5.40	5.49	6.00 to 8.00		
Nc1ncnc2c1ncn2Cc1cc(-c2ccc(F)c(F)c2)ncc1N1CCC[C@](N)(Cc2ncco2)C1 [Example 52, (S)-9-((5-(3-amino-3-(oxazol-2-ylmethyl)piperidin-1-yl)-2-(3,4-difluorophenyl)pyridin-4-yl)methyl)-9H-purin-6-amine]	5.92	5.88	6.27	8.00 to 9.00		
Nc1ncnc2c1ncn2Cc1cc(-c2ccc(F)c(F)c2)ncc1N1CCC[C@](N)(COC2CCC2)C1 [Example 30, (R)-9-((5-(3-amino-3-(cyclobutoxymethyl)piperidin-1-yl)-2-(3,4-difluorophenyl)pyridin-4-yl)methyl)-9H-purin-6-amine]	6.24	5.69	6.18	8.00 to 9.00		
CO[C@H](C)[C@@]1(N)CCCN(c2cnc(-c3ccc(F)c(F)c3)cc2Cn2cnc3c(N)ncnc32)C1 [Example 97, 9-((5-((R)-3-amino-3-((R)-1-methoxyethyl)piperidin-1-yl)-2-(3,4-difluorophenyl)pyridin-4-yl)methyl)-9H-purin-6-amine]	5.82	5.91	5.94	6.00 to 8.00		
COc1ccc(-c2cc(Cn3cnc4c(N)ncnc43)c(N3CCC[C@](N)([C@@H](C)OC)C3)cn2)cc1F [Example 94, 9-((5-((R)-3-amino-3-((R)-1-methoxyethyl)piperidin-1-yl)-2-(3-fluoro-4-methoxyphenyl)pyridin-4-yl)methyl)-9H-purin-6-amine]	5.52	5.92	5.96	6.00 to 8.00		
